# Test results: ChEMBL document CHEMBL5543121, “Drug Repurposing of ACT001 to Discover Novel Promising Sulfide Prodrugs with Improved Safety and Potent Activity for Neutrophil-Mediated Antifungal Immunotherapy” (J Med Chem, 2024)
# Experiments:
# [1] = Inhibition of fungal curdlan induced PD-L1 expression in mouse neutrophils at 40 uM relative to control; type: functional, Neutrophil; settings: for inhibition at 40 µM: Mus musculus, Neutrophil
# [2] = (§1) Cytotoxicity against mouse neutrophils assessed as cell viability at 40 uM relative to control; type: toxicity, cell-based, Neutrophil; settings: mouse neutrophils, read-out: Activity
# Candida albicans = assay: Antifungal activity against Candida albicans SC5314 assessed as inhibition of fungal growth measured every 3 hrs for 24 hrs by absorbance based analysis; type: functional, organism-based; settings: dose 0.25-128 µg/ml
# Neutrophil = assay: as §1; type: toxicity, cell-based; settings: neutrophil, 40 µM
structure (smiles),measurement,setting,value
COc1ccc(S(=O)(=O)C[C@@H]2C(=O)O[C@H]3[C@H]2CCC(C)=C2CC[C@@](C)(O)[C@@H]23)cc1,inhibition at 40 µM,[1],63.5%
same,viability at 40 µM,[2],39.5%
CC1=C2CC[C@@](C)(O)[C@@H]2[C@H]2OC(=O)[C@@H](CSc3ccc(Cl)cc3Cl)[C@@H]2CC1,inhibition at 40 µM,[1],52.6%
same,viability at 40 µM,[2],20.8%
OC(Cn1cncn1)(Cn1cncn1)c1ccc(F)cc1F,Activity,Candida albicans,Dose-Dependent Effect
C[C@@]1(O)CC[C@]23O[C@@]2(C)CC[C@@H]2[C@H](OC(=O)[C@H]2CS(=O)(=O)C2CCCCC2)[C@@H]13,inhibition at 40 µM,[1],65.3%
same,viability at 40 µM,[2],76.2%
C[C@@]1(O)CC[C@]23O[C@@]2(C)CC[C@@H]2[C@H](OC(=O)[C@H]2C[S+]([O-])c2ccc(Cl)cc2Cl)[C@@H]13 (stereo in doubt; 23b),inhibition (INH),[1]; 40 µM,52.64%
same,Activity,Neutrophil,65.45%
C[C@@]1(O)CC[C@]23O[C@@]2(C)CC[C@@H]2[C@H](OC(=O)[C@H]2CS(=O)(=O)c2ncccn2)[C@@H]13,inhibition at 40 µM,[1],85%
same,viability at 40 µM,[2],55.5%
CC1=C2CC[C@@](C)(O)[C@@H]2[C@H]2OC(=O)[C@@H](CSc3ncccn3)[C@@H]2CC1,inhibition at 40 µM,[1],49.9%
same,viability at 40 µM,[2],60.2%
CC1=C2CC[C@@](C)(O)[C@@H]2[C@H]2OC(=O)[C@@H](CSc3ccncc3)[C@@H]2CC1,inhibition at 40 µM,[1],72.5%
same,viability at 40 µM,[2],57.2%
CC1=C2CC[C@@](C)(O)[C@@H]2[C@H]2OC(=O)[C@@H](CSc3ccc(C)cc3)[C@@H]2CC1,inhibition at 40 µM,[1],34.8%
same,viability at 40 µM,[2],70.6%
C[C@@]1(O)CC[C@]23O[C@@]2(C)CC[C@@H]2[C@H](OC(=O)[C@H]2CS(=O)(=O)c2ccc(Cl)cc2Cl)[C@@H]13,inhibition at 40 µM,[1],78.8%
same,viability at 40 µM,[2],74.9%
C[C@@]1(O)CC[C@]23O[C@@]2(C)CC[C@@H]2[C@H](OC(=O)[C@H]2CS(=O)(=O)c2ccc(F)cc2)[C@@H]13,inhibition at 40 µM,[1],82.6%
same,viability at 40 µM,[2],50.7%
CC1=C2CC[C@@](C)(O)[C@@H]2[C@H]2OC(=O)[C@@H](CSCCC(C)C)[C@@H]2CC1,inhibition at 40 µM,[1],25.2%
same,viability at 40 µM,[2],101%
COc1ccc(S(=O)(=O)C[C@@H]2C(=O)O[C@H]3[C@H]2CC[C@]2(C)O[C@@]24CC[C@@](C)(O)[C@H]34)cc1,inhibition at 40 µM,[1],77.4%
same,viability at 40 µM,[2],54.8%
CC1=C2CC[C@@](C)(O)[C@@H]2[C@H]2OC(=O)[C@@H](CSc3ccc(F)cc3)[C@@H]2CC1,inhibition at 40 µM,[1],45.6%
same,viability at 40 µM,[2],74.6%
CC1=C2CC[C@@](C)(O)[C@@H]2[C@H]2OC(=O)[C@@H](C)[C@@H]2CC1,inhibition at 40 µM,[1],17.3%
same,viability at 40 µM,[2],98.6%
